Data published in patent US20250295570A1, “PEPTIDE HAVING ACTIVITY OF IMPROVING STATE OF SKIN, AND USE THEREOF” (CAREGEN CO., LTD., priority 2021, published 2025).

Tests used:
Assay type in all cases: cell-based, mouse
elastin = assay: Expression of extracellular matrix constituent factor elastin (RT-PCR) in NIH3T3 cells; details: 50 μM or 100 μM peptide, 24 hours, FIG. 2 and FIG. 3
Method: (§1) In this example, the aim was to confirm the effect of the peptide according to an example on improving endogenous skin aging, including improvement of wrinkles and enhancement of elasticity, etc., by evaluating the expression levels of collagen type 1 (Col1a1), fibronectin, or elastin, which are known components of the dermis.
(§2) Specifically, NIH3T3 cells were seeded in a 6-well plate at a density of 3×10^5 cells/well and cultured for 24 hours. The cells were then washed once with serum-free DMEM media, and the culture medium was replaced with serum-free DMEM media. Thereafter, 50 μM or 100 μM of the peptide consisting of the amino acid sequence of SEQ ID NO: 1 was dispensed into the medium, and cultured in a CO2 incubator at 37° C. for 24 hours. The culture was then washed twice with PBS, and RNA was isolated from the culture using easy blue (iNtRON, Korea). Using an RT kit (Enzynomics, Korea), 1 μg of the isolated RNA was reverse transcribed to synthesize the respective cDNA. Polymerase chain reaction (PCR) was then performed using the cDNAs and primers Col1a1, fibronectin, and elastin. Meanwhile, the untreated group was used as the control group, and the group to which TGF-β1 was added (TGF-β1) was used as the positive control group, the nucleotide sequences of the primers used in this example are shown in Table 2 below.

NIH3T3 cells [1] = assay: Antioxidant effect on skin cells induced by ultraviolet rays (reactive oxygen species, DCF-DA, FACS); details: 50 μM or 100 μM peptide, 6 J/cm2 ultraviolet rays, 24 hours, FL1 fluorescence by flow cytometry, FIG. 5
Method: In this example, the aim was to confirm the effect of the peptide according to an embodiment on the antioxidant effect of skin cells induced by ultraviolet rays, by evaluating the level of reactive oxygen species in skin cells increased by ultraviolet irradiation.
Specifically, NIH3T3 cells were seeded in a 6-well plate at a density of 5×10^5 cells/well and cultured for 24 hours. The cells were then washed once with serum-free DMEM media, the culture medium was replaced with serum-free DMEM media, and 50 μM or 100 μM of the peptide consisting of the amino acid sequence of SEQ ID NO: 1 was dispensed to the culture medium. The culture medium dispensed with the peptide was cultured in a CO2 incubator at 37° C. for 1 hour, transferred to an e-tube, mixed with 100 ul of PBS, and dispensed into a well plate. Afterwards, using a UV irradiator (VILBER LOURMAT, France), 6 J/cm2 ultraviolet rays were irradiated to NIH3T3 cells. The PBS in the well plate was then removed, 900 μL of the culture medium in which the peptides were dispensed was added, and the plate was cultured in a CO2 incubator at 37° C. for 24 hours. The culture was then treated with DCFG-DA (2′,7′-dichlorofluorescin diacetate), wrapped in foil, and cultured in a CO2 incubator at 37° C. for 30 minutes. […] After washing the centrifuged cells with PBS, FL1 fluorescence values were measured through flow cytometry (FACS, BD, USA). […]

collagen type 1 (Col1a1) = assay: Expression of extracellular matrix constituent factor Col1a1 (RT-PCR) in NIH3T3 cells; details: 50 μM or 100 μM peptide, 24 hours, FIG. 2 and FIG. 3
Method: as §1, §2

NIH3T3 cells [2] = assay: Inhibition of apoptosis of skin cells induced by ultraviolet rays (SRB survival rate); details: 50 μM or 100 μM peptide, 6 J/cm2 ultraviolet rays, 72 hours, FIG. 4
Method: In this example, the aim was to confirm the effect of the peptide according to an example on the inhibition of apoptosis or cell recovery of skin cells induced by ultraviolet rays, by evaluating the change in survival rate of skin cells whose apoptosis was induced by ultraviolet irradiation.
Specifically, NIH3T3 cells were seeded in a […] at a density of 1×10^4 cells/well and cultured for 24 hours. The cells were then washed once with serum-free DMEM media, the culture medium was replaced with serum-free DMEM media, and 50 μM or 100 μM of the peptide consisting of the amino acid sequence of SEQ ID NO: 1 was dispensed to the culture medium. The culture medium dispensed with the peptide was cultured in a CO2 incubator at 37° C. for 1 hour, transferred to an e-tube, mixed with 100 ul of PBS, and dispensed into a well plate. Afterwards, using a UV irradiator (VILBER LOURMAT, France), 6 J/cm2 ultraviolet rays were irradiated to NIH3T3 cells. The PBS in the well plate was then removed, 900 μL of the culture medium in which the peptides were dispensed was added, and the plate was cultured in a CO2 incubator at 37° C. for 72 hours. […] The dried culture was then dissolved in 20 mM Tris buffer solution and the absorbance at 560 nm was measured using a microplate reader (Molecular Devices, USA). […]

fibronectin = assay: Expression of extracellular matrix constituent factor fibronectin (RT-PCR) in NIH3T3 cells; details: 50 μM or 100 μM peptide, 24 hours, FIG. 2 and FIG. 3
Method: as §1, §2

NIH3T3 cells [3] = assay: Proliferation of skin cells (SRB staining, survival rate of NIH3T3 cells); details: 50 μM or 100 μM peptide, 72 hours, serum-free DMEM, SRB absorbance at 560 nm, FIG. 1
Method: In this example, the aim was to confirm the effect of a peptide according to an example on proliferation of skin cells, by evaluating changes in survival rate of NIH3T3 cells, which are mouse fibroblasts.
Specifically, NIH3T3 cells were seeded in a […] at a density of 5×10^3 cells/well and cultured for 24 hours. The cells were then washed once with serum-free DMEM media, and the culture medium was replaced with serum-free DMEM media. Then, 50 μM or 100 μM of the peptide consisting of the amino acid sequence of SEQ ID NO: 1 was dispensed into the medium, and cultured in a CO2 incubator at 37° C. for 72 hours. The culture was then washed twice with PBS and treated with 4% paraformaldehyde (PFA) solution for 15 minutes to fix the cultured cells. The culture was then washed twice with distilled water, treated with SRB solution for 1 hour to stain the cells, washed with 1% acetic acid solution, and dried. The dried culture was then dissolved in 20 mM Tris buffer solution and the absorbance at 560 nm was measured using a microplate reader (Molecular Devices, USA). In this example, the untreated group was used as the control group, and the group to which insulin-like growth factor was added (IGF) was used as the positive control group.

SHNFREEPEMRR (Peptide 1) [SEQ ID NO: 1] was tested, and the expression of elastin (elastin) was “increased”, the “level of reactive oxygen species in fibroblasts increased by ultraviolet irradiation” value (NIH3T3 cells [1]) was “reduced” and the “expression of Col1a1” value (collagen type 1 (Col1a1)) was “increased”. The “cell survival rate of fibroblasts reduced by ultraviolet irradiation” value (NIH3T3 cells [2]) was “restored”, the expression of fibronectin (fibronectin) was “increased” and the proliferation of fibroblasts (NIH3T3 cells [3]) was “promoted”.
